Results from patent US20040082479A1, “Method for soil sterilization from pathogens” (priority 2001, published 2004).

Assays:
Rhizoctonia solani Kuhn = assay: Linear (radial) growth of fungi in vitro on potato dextrose agar with allicin; assay type: cell-based; conditions: PDA; for Linear growth, mm radius of growth: 0.1 ml allicin solution 2 mg/ml; for Effect on growth of the fungus (in words): in vitro
Experimental: (§1) Pure allicin in aqueous solution at 2 mg/ml was obtained as previously described in International PCT Publication WO 97/39115, following the interaction of synthetic, nature-identical alliin (allylcysteine sulfoxide) with a preparation of stabilized garlic alliinase. Fungal plant pathogens were grown in soil as previously described (Ko et al, 1971). Contamination of soil with Rhizoctonia solani and infection of bean seedlings was determined as previously reported (Chet, 1987).
(§2) The effect of allicin on the growth of a number of known soil fungal pathogens was examined in vitro. Fungi were innoculated in Petri dishes containing potato dextrose agar (PDA, Difco) and the radial growth rate of the fungi was measured every 24 hours. The effect of the addition of 0.1 ml of a solution of allicin (2.0 mg/ml) on the radial growth rate of the pathogen was determined after 24, 48, 72 and 96 hours.

Sclerotinia sclerotiorum = assay: as above; assay type: cell-based; conditions: PDA; for Linear growth, mm radius of growth: 0.1 ml allicin solution 2 mg/ml; for Effect on growth of the fungus (in words): in vitro
Experimental: as §1, §2

[1] = tested on: Fusarium oxysporum f. sp. vasinfectum; assay: as above; assay type: cell-based; conditions: PDA; for Linear growth, mm radius of growth: 0.1 ml allicin solution 2 mg/ml; for Effect on growth of the fungus (in words): in vitro
Experimental: as §1, §2

Sclerotium Rolfsii Sacc. = assay: as above; assay type: cell-based; conditions: PDA; for Linear growth, mm radius of growth: 0.1 ml allicin solution 2 mg/ml; for Effect on growth of the fungus (in words): in vitro
Experimental: as §1, §2

Trichoderma hurzianum = assay: as above; assay type: cell-based; conditions: PDA; for Linear growth, mm radius of growth: 0.1 ml allicin solution 2 mg/ml; for Effect on growth of the fungus (in words): in vitro
Experimental: as §1, §2

Rhizoctonia solani = assay: Diseased bean plants (Phaseolus vulgaris L.) grown in Rhizoctonia solani contaminated soil pre-treated with allicin; assay type: in vivo
Experimental: as §1
Boxes with raw red-brown, sandy loam soil (0.5 Kg) 1.0 were precontaminated with viable Rhizoctonia solani. The fungi-contaminated soil in the boxes were subsequently irrigated with aqueous solutions (30 ml/box) containing different concentrations of allicin (A: 0.31 mg allicin/ml; B: 0.62 mg allicin/ml; C: 0.94 mg allicin/ml; D: 1.25 mg allicin/ml). Irrigations were repeated 3 times, with 3 days intervals between treatments. Controls were irrigated with similar volumes of water. Four soil replicates were irrigated for each allicin concentration as well as for the control. Following each irrigation step, the soil boxes were closed in nylon bags. Four days after the last irrigation, the bags were opened and the boxes with the soil ventilated for 5 more days.
Bean seeds (Phaseolus vulgaris L.) (10/box) were then planted in each of the boxes and the growth and development of disease in the plants was determined after 14 days. As shown in Table 2 and FIGS. 1-2, black columns, 86% of the control plants became diseased whereas in soil pre-irrigated with 0.94 (FIGS. 1-2, C) and 1.25 (FIGS. 1-2, D) mg/ml allicin, less than 20% of the plants became diseased (decrease of >80% in diseased plants, FIG. 2). The effect of allicin was dose-dependent and at the lowest concentration tested (0.31 mg allicin/ml), the decrease in the number of diseased plants was only 14% (Table 2 and FIGS. 1-2, black columns).
In order to test the time length efficacy of soil that was pre-treated with allicin, an additional experiment was done in the same soil boxes. After the first cycle of the bean growth experiment for 14 days described above, the plants were removed and a second cycle of bean growth was conducted whereby a new set of bean seeds was immediately seeded in the same soil boxes and the development of disease in the plants grown in this second cycle was determined after 14 days. The results are shown in Table 2 and in FIGS. 1-2, gray columns. […] Some protection (33%) was also observed in soils irrigated with 0.94 mg allicin/ml (C).

C=CCS[S+]([O-])CC=C (stereo not shown) [Allicin, thio-2-propene-1-sulfinic acid S-allyl ester]
Linear growth, mm radius of growth (Rhizoctonia solani Kuhn; 24 hrs): 2.5 mm
Linear growth, mm radius of growth (Rhizoctonia solani Kuhn; 48 hrs): 7.5 mm
Linear growth, mm radius of growth (Rhizoctonia solani Kuhn; 72 hrs): 15 mm
Effect on growth of the fungus (in words) (Rhizoctonia solani Kuhn): Very significant inhibition of growth
Linear growth, mm radius of growth (Sclerotinia sclerotiorum; 24 hrs): 0.5 mm
Linear growth, mm radius of growth (Sclerotinia sclerotiorum; 48 hrs): 7.5 mm
Linear growth, mm radius of growth (Sclerotinia sclerotiorum; 72 hrs): 20 mm
Linear growth, mm radius of growth (Sclerotinia sclerotiorum; 96 hrs): 45 mm
Effect on growth of the fungus (in words) (Sclerotinia sclerotiorum): Very significant inhibition of growth
Linear growth, mm radius of growth ([1]; 24 hrs): 2.5 mm
Linear growth, mm radius of growth ([1]; 48 hrs): 7.5 mm
Linear growth, mm radius of growth ([1]; 72 hrs): 12.5 mm
Linear growth, mm radius of growth ([1]; 96 hrs): 15 mm
Effect on growth of the fungus (in words) [1]: Very significant inhibition of growth
Linear growth, mm radius of growth (Sclerotium Rolfsii Sacc.; 24 hrs): 0 mm
Linear growth, mm radius of growth (Sclerotium Rolfsii Sacc.; 48 hrs): 2.5 mm
Linear growth, mm radius of growth (Sclerotium Rolfsii Sacc.; 72 hrs): 15 mm
Effect on growth of the fungus (in words) (Sclerotium Rolfsii Sacc.): Very significant inhibition of growth
Linear growth, mm radius of growth (Trichoderma hurzianum; 24 hrs): 2.5 mm
Linear growth, mm radius of growth (Trichoderma hurzianum; 48 hrs): 7.5 mm
Linear growth, mm radius of growth (Trichoderma hurzianum; 72 hrs): 22.5 mm
Effect on growth of the fungus (in words) (Trichoderma hurzianum): Very significant inhibition of growth
Diseased Plants (%) (Rhizoctonia solani; First Cycle (14 days after planting), treatment A: 0.31 mg allicin/ml (30 ml), 3 irrigations, 0.5 Kg soil): 74%
Diseased Plants (%) (Rhizoctonia solani; First Cycle (14 days after planting), treatment B: 0.62 mg allicin/ml (30 ml), 3 irrigations, 0.5 Kg soil): 39%
Diseased Plants (%) (Rhizoctonia solani; First Cycle (14 days after planting), treatment C: 0.94 mg allicin/ml (30 ml), 3 irrigations, 0.5 Kg soil): 16%
Diseased Plants (%) (Rhizoctonia solani; First Cycle (14 days after planting), treatment C: 0.94 mg allicin/ml (30 ml), 3 irrigations, 0.5 Kg soil, listed as allicin): less than 20%
Diseased Plants (%) (Rhizoctonia solani; First Cycle (14 days after planting), treatment D: 1.25 mg allicin/ml (30 ml), 3 irrigations, 0.5 Kg soil): 18%
Diseased Plants (%) (Rhizoctonia solani; First Cycle (14 days after planting), treatment D: 1.25 mg allicin/ml (30 ml), 3 irrigations, 0.5 Kg soil, listed as allicin): less than 20%
Diseased Reduction (%) (Rhizoctonia solani; First Cycle, treatment A: 0.31 mg allicin/ml (30 ml)): 14%
Diseased Reduction (%) (Rhizoctonia solani; First Cycle, treatment B: 0.62 mg allicin/ml (30 ml)): 55%
Diseased Reduction (%) (Rhizoctonia solani; First Cycle, treatment C: 0.94 mg allicin/ml (30 ml)): 81%
Diseased Reduction (%) (Rhizoctonia solani; First Cycle, treatment C: 0.94 mg allicin/ml (30 ml), listed as allicin): > 80%
Diseased Reduction (%) (Rhizoctonia solani; First Cycle, treatment D: 1.25 mg allicin/ml (30 ml)): 90%
Diseased Reduction (%) (Rhizoctonia solani; First Cycle, treatment D: 1.25 mg allicin/ml (30 ml), listed as allicin): > 80%
Diseased Plants (%) (Rhizoctonia solani; Second Cycle (14 days after replanting), treatment A: 0.31 mg allicin/ml (30 ml)): 90%
Diseased Plants (%) (Rhizoctonia solani; Second Cycle (14 days after replanting), treatment A: 0.31 mg allicin/ml (30 ml), listed as allicin): almost identical to that of the controls
Diseased Plants (%) (Rhizoctonia solani; Second Cycle (14 days after replanting), treatment B: 0.62 mg allicin/ml (30 ml)): 80%
Diseased Plants (%) (Rhizoctonia solani; Second Cycle (14 days after replanting), treatment B: 0.62 mg allicin/ml (30 ml), listed as allicin): almost identical to that of the controls
Diseased Plants (%) (Rhizoctonia solani; Second Cycle (14 days after replanting), treatment C: 0.94 mg allicin/ml (30 ml)): 60%
Diseased Plants (%) (Rhizoctonia solani; Second Cycle (14 days after replanting), treatment D: 1.25 mg allicin/ml (30 ml)): 30%
Diseased Reduction (%) (Rhizoctonia solani; Second Cycle, treatment A: 0.31 mg allicin/ml (30 ml)): 0%
Diseased Reduction (%) (Rhizoctonia solani; Second Cycle, treatment B: 0.62 mg allicin/ml (30 ml)): 11%
Diseased Reduction (%) (Rhizoctonia solani; Second Cycle, treatment C: 0.94 mg allicin/ml (30 ml)): 33%
Diseased Reduction (%) (Rhizoctonia solani; Second Cycle, treatment D: 1.25 mg allicin/ml (30 ml)): 66%

allylcysteine sulfoxide [alliin, reference compound]
Effect on growth of the fungus (in words) (Rhizoctonia solani Kuhn): no effect
Effect on growth of the fungus (in words) (Sclerotinia sclerotiorum): no effect
Effect on growth of the fungus (in words) [1]: no effect
Effect on growth of the fungus (in words) (Sclerotium Rolfsii Sacc.): no effect
Effect on growth of the fungus (in words) (Trichoderma hurzianum): no effect
